# According to patent US20210023223A1, “HYDROCARBON / LIPID - CAROTENOID COMPLEXES” (IP SCIENCE LIMITED, priority 2018, published 2021):
# Key:
# [1] = Acid induced degradation at pH 2.5, gas chromatography; assay type: physicochemical
# Method: Briefly, 100 μl of serum and 2 ml of the stock solution were combined in screw-capped glass tubes. The tubes were capped and heated at 100 C for 60 min. The tubes were allowed to cool down to the room temperature and were extracted twice with 1 ml hexane. The combined hexane solution was evaporated under vacuum (Scan Speed 32 centrifuge) and the residue reconstituted to the volume of 50 μl with of hexane, transferred to GC vials, and capped under nitrogen.
# Temperature program, initial: 130 C with a 4 min hold; ramp: 4 C/min to 280 C with a 2 min hold. Carrier gas was He, with a linear velocity of 30 cm/s. Fatty acid analysis was performed by injection of 1 μl of each sample at a split ratio of 50:1. The FID and the Injection port temperature was 300 C. The sampling frequency was 40 Hz. Fatty acids identification was performed with SUPELCO 37 COMPONENT FAME MIX (Supelco, USA). DHA concentrations were calculated on the basis of the standard concentrations. Analytical standard of DHA and PTC (Sigma, USA) were used in the assay.
# [2] = tested on: individuals with a moderate hyperlipidemia; test: Clinical Trial DHA-Lycopene, 4 weeks; assay type: in vivo, human; conditions: for LDL / Triglycerides: medians, DHA 250 mg and/or lycopene 7 mg once a day
# Method: To validate this, a clinical trial was undertaken. 32 individuals aged 40-65 years old with a moderate hyperlipidemia (serum triglycerides, TG, >150 mg/dl and LDL from 130 to 160 mg/dl). They were randomised and split in four groups of 8: • The first was supplemented with a 250 mg of conventional formulation of DHA without lycopene (CF-DHA), • the second with 7 mg of lycopene, • the third with 250 mg of DHA and 7 mg of lycopene co-ingested at the same time but as two separate products, and • the fourth group received 7 mg lycopene formulated with 250 mg of DHA (LF-DHA). All products were taken once a day with the main meal. The duration of the trial was for 4 weeks.
# Melting time at 37° C. = assay type: physicochemical; conditions: 1 mg per 1 g of the chocolate; control 19 minutes
# Method: Approximately 20 mg of butter, or pork fat, or beef fat, or cocoa butter, or chocolate, with or without certain concentrations of carotenoids, were placed on the surface of the laboratory slides and incubated at 37° C. in a laboratory incubator (TLK39).
# Results presented in FIG. 15 show three different carotenoids—lycopene, lutein and astaxanthin, can reduce, albeit to a different degree, the melting time of dark chocolate regardless of its tempering protocols: Protocol I—28° C., Protocol II—29° C., Protocol III—30° C.
# [3] = DHA preparation without lycopene
# [4] = DHA preparation with lycopene 1 mg per 1 g of DHA
"GC peak Area, %, Baseline [1, 3] [%]","GC peak Area, Baseline [1, 3]","GC peak Area, %, After 2 hours at pH 2.5 [1, 4] [%]","GC peak Area, %, Baseline [1, 4] [%]","GC peak Area, After 2 hours at pH 2.5 [1, 4]","GC peak Area, Baseline [1, 4]","GC peak Area, %, After 2 hours at pH 2.5 [1, 3] [%]","GC peak Area, After 2 hours at pH 2.5 [1, 3]",Melting time of dark chocolate (Melting time at 37° C.) [min],Compound,LDL ([2]; 0 w) [mg/dL],Triglycerides ([2]; 0 w) [mg/dL],LDL ([2]; 4 w) [mg/dL],Triglycerides ([2]; 4 w) [mg/dL],Reduction of medians of serum TG concentration ([2]; 4 weeks) [mg/dL],"Reduction in LDL ([2]; 4 weeks, p<0.05) [mg/dL]"
18.45,"197,526",17.52,17.82,"186,438","171,664",17.66,"118,649",–,CCCCCCCCCCCCCCCC(=O)O [Palmitic],–,–,–,–,–,–
0.11,"1,219",0.16,0.17,"1,710","1,598",0.19,"1,278",–,CCCCCC/C=C\CCCCCCCC(=O)O [Palmitoleic],–,–,–,–,–,–
0.29,"3,120",0.27,0.26,"2,843","2,511",0.26,"1,716",–,CCCCCCCCCCCCCCC(=O)O [Pentadecanoic],–,–,–,–,–,–
0.66,"7,051",0.64,0.69,"6,811","6,673",0.68,4597,–,CCCCCCCCCCCCCCCCCC(=O)O [Stearic],–,–,–,–,–,–
42.63,"456,572",43.60,42.55,"464,051","409,974",43.54,"292,485",–,"CCC=CCC=CCC=CCC=CCC=CC/C=C\CCC(=O)O [cis-4,7,10,13,16,19-Docosahexaenoic]",–,–,–,–,–,–
1.07,"11,447",1.01,1.03,"10,759","9,937",0.99,6679,–,"CCC=CCC=CCC=CCC=CC/C=C\CCCC(=O)O [cis-5,8,11,14,17-eicosapentaenoic]",–,–,–,–,–,–
0.28,"3,030",0.26,0.27,"2,767","2,627",0.28,"1,851",–,CCCCC/C=C\C/C=C\C/C=C\CCCCC(=O)O [gamma-Linolenic],–,–,–,–,–,–
0.47,"5,002",0.55,0.46,"5,889","4,391",0.42,2800,–,"cis-8,11,14,17-eicosapentaenoic",–,–,–,–,–,–

# Further lines, the compound ahead of its results:
Compound,"GC peak Area, %, Baseline [1, 3] [%]","GC peak Area, Baseline [1, 3]","GC peak Area, %, After 2 hours at pH 2.5 [1, 4] [%]","GC peak Area, %, Baseline [1, 4] [%]","GC peak Area, After 2 hours at pH 2.5 [1, 4]","GC peak Area, Baseline [1, 4]","GC peak Area, %, After 2 hours at pH 2.5 [1, 3] [%]","GC peak Area, After 2 hours at pH 2.5 [1, 3]",Melting time of dark chocolate (Melting time at 37° C.) [min],LDL ([2]; 0 w) [mg/dL],Triglycerides ([2]; 0 w) [mg/dL],LDL ([2]; 4 w) [mg/dL],Triglycerides ([2]; 4 w) [mg/dL],Reduction of medians of serum TG concentration ([2]; 4 weeks) [mg/dL],"Reduction in LDL ([2]; 4 weeks, p<0.05) [mg/dL]"
CCCCCCCCCCCCCCCCCCCC(=O)O [Arachidic],0.10,"1,032",–,–,–,–,–,–,–,–,–,–,–,–,–
CCCCC/C=C\C/C=C\C/C=C\C/C=C\CCCC(=O)O [Arachidonic],0.83,"8,907",0.81,0.82,"8,565","7,859",0.79,5323,–,–,–,–,–,–,–
CCCCCCCCCCCCCCCCCCCCCC(=O)O [Behenic],0.10,"1,096",–,–,–,–,–,–,–,–,–,–,–,–,–
CCCCCC(=O)O [Caproic],1.31,"13,975",–,–,–,–,–,–,–,–,–,–,–,–,–
"CC/C=C\C/C=C\C/C=C\C/C=C\C/C=C\C/C=C\CCC(=O)O [DHA, Doxosahexaenoic Acid]",–,–,–,–,–,–,–,–,–,155.5,191.5,153.5,185.5,27.5,19.5
CCCCCCCC/C=C/CCCCCCCC(=O)O [Elaidic],0.20,"2,108",0.21,0.26,"2,205","2,537",0.24,1629,–,–,–,–,–,–,–
CCCCCCCCCCCC(=O)O [Lauric],0.16,"1,718",0.15,0.14,"1,605","1,354",–,–,–,–,–,–,–,–,–
CCCCCCCCCCCCCCCCCCCCCCCC(=O)O [Lignoceric],0.14,"1,518",0.17,0.17,"1,775","1,613",0.17,1162,–,–,–,–,–,–,–
CCCCC/C=C\C/C=C\CCCCCCCC(=O)O [Linoleic],0.89,"9,494",0.98,1.28,"10,395","12,328",1.25,8396,–,–,–,–,–,–,–
"CC1=C[C@H](O)CC(C)(C)[C@H]1/C=C/C(C)=C/C=C/C(C)=C/C=C/C=C(C)/C=C/C=C(C)/C=C/C1=C(C)C[C@@H](O)CC1(C)C [Lutein, lutein]",–,–,–,–,–,–,–,–,6,–,–,–,–,–,–
CCCCCCCCCCCCCC(=O)O [Myristic],6.23,"73,096",6.56,6.42,"69,816","61,814",6.42,"43,118",–,–,–,–,–,–,–
CCCC/C=C\CCCCCCCC(=O)O [Myristoleic],0.18,"1,934",0.17,0.17,"1,789","1,662",0.18,"1,197",–,–,–,–,–,–,–
Linole/alpha-linilenic,6.53,"69,917",6.42,6.63,"68,330","63,846",6.72,45112,–,–,–,–,–,–,–
